# Test results taken from ChEMBL document CHEMBL5725996, “Heteroaryl substituted pyridyl compounds useful as kinase modulators” (2017).
# Target: T1, Interleukin-1 receptor-associated kinase 4 (Homo sapiens, UniProt Q9NWZ3)
# T1 sequence (Q9NWZ3 whole entry): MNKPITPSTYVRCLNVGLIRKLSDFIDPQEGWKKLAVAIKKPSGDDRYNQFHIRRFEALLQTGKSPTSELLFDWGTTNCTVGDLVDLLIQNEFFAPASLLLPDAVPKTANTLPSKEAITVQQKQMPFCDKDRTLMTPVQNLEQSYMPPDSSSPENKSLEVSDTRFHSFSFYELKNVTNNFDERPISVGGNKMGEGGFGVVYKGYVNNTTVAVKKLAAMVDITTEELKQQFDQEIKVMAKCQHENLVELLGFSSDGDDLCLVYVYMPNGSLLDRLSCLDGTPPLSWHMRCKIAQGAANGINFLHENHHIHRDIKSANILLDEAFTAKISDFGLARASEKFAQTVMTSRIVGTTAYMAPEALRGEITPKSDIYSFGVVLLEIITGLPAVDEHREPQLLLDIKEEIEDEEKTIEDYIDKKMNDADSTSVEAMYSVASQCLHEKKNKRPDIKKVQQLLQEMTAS
# Assay: Inhibition Assay: The assays were performed in U-bottom 384-well plates. […] The reaction was initiated by the combination of IRAK4 with substrates and test compounds. The reaction mixture was incubated at room temperature for 60 min. and terminated by adding 45 μL of 35 mM EDTA to each sample. […] The final concentrations of reagents in the assays are ATP, 500 μM; FL-[…] peptide 1.5 μM; IRAK4, 0.6 nM; and DMSO, 1.6%.
row,Compound,IC50 [nM]
1,CS[C@H]1CC[C@H](NC(=O)c2cnc(Nc3ncc(C#N)cc3F)cc2NC(C)C)CC1,12.5
2,CCNC(=O)[C@H]1CC[C@H](NC(=O)c2cnc(Nc3ncc(C#N)cc3F)cc2NC(C)C)CC1,9.4
3,CNC(=O)[C@H]1CC[C@H](NC(=O)c2cnc(Nc3ccc(C#N)cn3)cc2NC(C)C)CC1,5.6
4,CC(C)Nc1cc(Nc2ccc(C#N)cn2)ncc1C(=O)NC1CCC(O)(c2ccnn2C)CC1 (stereo unspecified),4.6
5,CC(=O)N[C@H]1CC[C@H](NC(=O)c2cnc(Nc3ncncc3Cl)cc2NC(C)C)CC1,16.8

# Second part, the compound after the results:
row,IC50 [nM],Compound
1,5.5,CC(C)(O)[C@H](F)CNC(=O)c1cnc(Nc2ncncc2Cl)cc1NC1CC1
2,4.1,CC(C)Nc1cc(Nc2ncc(C#N)cc2Cl)ncc1C(=O)NC1CCC(C(C)(C)O)CC1 (stereo unspecified)
3,12.6,COC[C@H](F)CNC(=O)c1cnc(Nc2ncc(C#N)cc2F)cc1NC(C)C
4,19.9,CC(C)Nc1cc(Nc2nc(OC3CCNCC3)ncc2Cl)ncc1C(=O)NC[C@@H](F)C(C)(C)O
5,2.1,CC(C)(O)[C@H](F)CNC(=O)c1cnc(Nc2ncc(C#N)cc2Cl)cc1NC1CCOCC1
6,9.3,CC(C)(O)CNc1cc(Nc2ncc(C#N)cc2Cl)ncc1C(=O)NC[C@@H](F)C(C)(C)O
